Here are results for 14 compounds from patent publication US20090306102A1, “2-PYRIDIN-2-YL-QUINAZOLINE DERIVATIVES AS POTASSIUM CHANNEL MODULATING AGENTS FOR THE TREATMENT OF RESPIRATORY DISEASES” (priority 2005, published 2009).

The first series deals with T1, hSK3 channels (Homo sapiens, UniProt Q9UGI6).
T1 construct: expressed in transfected cells; host or cells: HEK293
Description: whole-cell patch-clamp recording of ionic current through SK channels (subtype 3) in HEK293 cells expressing hSK3. The format is cell-based. How it is done: The ionic current through small-conductance Ca^2+-activated K^+ channels (SK channels, subtype 3) is recorded using HEK293 tissue culture cells expressing hSK3 channels in a whole-cell configuration of the patch-clamp technique as described in e.g. WO 2006/100212.
For activators a SC100 value may be estimated. The SC100 value is defined as the Stimulating Concentration required for increasing the baseline current by 100%. The SC100 value determined for Compound A1 of the invention was well below 0.1 μM, which is an indication of its strong SK3 activating properties.
(In general: The patch-clamp technique gives a direct electrical read-out from membranes.)
For `Cc1cccc(-c2nc(Nc3ccc(Cl)cc3)c3ccccc3n2)n1` [Compound A1, (4-Chloro-Phenyl)-[2-(6-Methyl-Pyridin-2-yl)-Quinazolin-4-yl]-Amine], the “SC100 value (Stimulating Concentration required for increasing the baseline current by 100%)” value is “below 0.1 μM”.

Test system in a further series: not given
Assay: not given
By melting point is commonly meant the temperature of the solid-liquid transition. With `Cc1cccc(-c2nc(Nc3ccc(Cl)cc3)c3ccccc3n2)n1` [Compound A1, (4-Chloro-Phenyl)-[2-(6-Methyl-Pyridin-2-yl)-Quinazolin-4-yl]-Amine], the melting point lay in the range of 256.1 to 259.1 °C.

In turn, `Fc1cccc(-c2nc(Nc3ccc(Cl)cc3)c3ccccc3n2)n1` [Compound A2, (4-Chloro-Phenyl)-[2-(6-Fluoro-Pyridin-2-yl)-Quinazolin-4-yl]-Amine] registered a melting point of 118.3 to 121.4 °C.

Turning to `Clc1ccc(Nc2nc(-c3cccc(Br)n3)nc3ccccc23)cc1` [Compound A3, [2-(6-Bromo-Pyridin-2-yl)-Quinazolin-4-yl]-(4-Chloro-Phenyl)-Amine], the melting point lay in the range of 242.4 to 247.9 °C.

`COc1cccc(-c2nc(Nc3ccc(Cl)cc3)c3ccccc3n2)n1` [Compound A4, (4-Chloro-Phenyl)-[2-(6-Methoxy-Pyridin-2-yl)-Quinazolin-4-yl]-Amine] displayed a melting point of 156.8 to 160 °C.

Compound `Oc1cccc(-c2nc(Nc3ccc(Cl)cc3)c3ccccc3n2)n1` [Compound A5, 6-[4-(4-Chloro-Phenylamino)-Quinazolin-2-yl]-Pyridin-2-ol] registered a melting point of more than 350 °C.

The compound `O=C(c1ccccc1)c1cccnc1-c1nc(NC2CCCCC2)c2ccccc2n1` [Compound B1, [2-(4-Cyclohexylamino-Quinazolin-2-yl)-Pyridin-3-yl]-Phenyl-Methanone] yielded a melting point of 204 to 208 °C.

In turn, `Cc1cccc(-c2nc(NC3CCCCC3)c3ccccc3n2)n1` [Compound B2, Cyclohexyl-[2-(6-Methyl-Pyridin-2-yl)-Quinazolin-4-yl]-Amine] came in with a melting point of 253.1 to 254.9 °C.

As for `Cc1cccc(-c2nc(NCc3ccc(Cl)cc3)c3ccccc3n2)n1` [Compound B3, (4-Chloro-Benzyl)-[2-(6-Methyl-Pyridin-2-yl)-Quinazolin-4-yl]-Amine], the melting point was in the range of 209.9 to 212.2 °C.

`Clc1cccc(-c2nc(NC3CCCCC3)c3ccccc3n2)n1` [Compound B4, [2-(6-Chloro-Pyridin-2-yl)-Quinazolin-4-yl]-Cyclohexyl-Amine] registered a melting point of 218.4 to 220.9 °C.

As for `Clc1ccc(Nc2nc(-c3cccc(Cl)n3)nc3ccccc23)cc1` [Compound B5, (4-Chloro-Phenyl)-[2-(6-Chloro-Pyridin-2-yl)-Quinazolin-4-yl]-Amine], the melting point lay in the range of 211.9 to 213.2 °C.

Turning to `Clc1ccc(CNc2nc(-c3cccc(Cl)n3)nc3ccccc23)cc1` [Compound B6, (4-Chloro-Benzyl)-[2-(6-chloro-Pyridin-2-yl)-Quinazolin-4-yl]-Amine], the melting point fell in the range of 187.4 to 189.7 °C.

In turn, `c1ccc2c(-c3nc(NC4CCCCC4)c4ccccc4n3)nccc2c1` [Compound B9, Cyclohexyl-(2-Isoquinolin-1-yl-Quinazolin-4-yl)-Amine] registered a melting point of 274.8 to 276.9 °C.

For the compound `Clc1ccc(Nc2nc(-c3nccc4ccccc34)nc3ccccc23)cc1` [Compound B10, (4-Chloro-Phenyl)-(2-Isoquinolin-1-yl-Quinazolin-4-yl)-Amine], the melting point was in the range of 279 to 280.5 °C.

With `Clc1ccc(CNc2nc(-c3nccc4ccccc34)nc3ccccc23)cc1` [Compound B11, (4-Chloro-Benzyl)-(2-Isoquinolin-1-yl-quinazolin-4-yl)-Amine], the melting point lay in the range of 221.4 to 224.5 °C.
